Data: ChEMBL document CHEMBL1154551, “Microbial transformation of benzosampangine” (2000)
Converted amounts (≈) assume the structure as drawn.

Columns and labels:
Format in all cases: functional
Cryptococcus neoformans = assay: Antimicrobial activity against Cryptococcus neoformans
Candida albicans = assay: Antimicrobial activity against Candida albicans
Aspergillus fumigatus = assay: Antimicrobial activity against Aspergillus fumigatus

MIC (Cryptococcus neoformans) [µg/mL]	MIC (Candida albicans) [µg/mL]	MIC (Aspergillus fumigatus) [µg/mL]	Structure (SMILES)
0.39 (≈ 0.422 µM)	–	–	C[C@@H]1[C@H](O)[C@@H](C)/C=C/C=C/C=C/C=C/C=C/C=C/C=C/[C@H](O[C@@H]2O[C@H](C)[C@@H](O)[C@H](N)[C@@H]2O)C[C@@H]2O[C@](O)(C[C@@H](O)C[C@@H](O)[C@H](O)CC[C@@H](O)C[C@@H](O)CC(=O)O[C@H]1C)C[C@H](O)[C@H]2C(=O)O [AMPHOTERICIN B]
1.56 (≈ 5.53 µM)	0.39 (≈ 1.38 µM)	0.39 (≈ 1.38 µM)	O=C1c2ccccc2-c2nccc3c2c1nc1ccccc13 [BENZOSAMPANGINE]
